Data on 47 compounds can be found in PubChem BioAssay (NCI).

Several values for one entry are separate records, joined by “and”; a condition that tells them apart may be missing. Equal entries are not always repeated.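 Growth conditions: 96-well plates. Treatment: test compound, 48 hours, 5 concentrations. Analysis: linear interpolation between bracketing concentrations; unreached endpoints set to highest concentration. GI50 = concentration required for 50% inhibition of growth. TGI: concentration producing complete growth inhibition.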

This assay concerns MDA-MB-468 breast. As to the kind of experiment: DTP human tumour cell line panel, 48 h.
What is called GI50 is the concentration that inhibits growth by half. What is called TGI is the concentration giving total growth inhibition. Lower therefore signals more potent growth arrest. Consider `Cn1ncc2c(Nc3ccc(Br)cc3)nc(Nc3ccc(Br)cc3)nc21`, for which the GI50 was 2110 nM and the total growth inhibition concentration (TGI) came to 7780 nM.
`O=C1Nc2ccc(F)c3c(OCCO)cc(-c4ccc[nH]4)c1c23`: the GI50 was 528 nM and the TGI is 1830 nM.
The matching figures for `Cc1c(Cl)cccc1NC(=O)CC1Sc2ccccc2NC1=O` (centres undefined): 12800 nM and 37400 nM.
For the compound `Cn1ncc2cc(-c3cnc(N)c(Cl)c3N3CCC4(CCNC4=O)CC3)ccc21`, the GI50 was 16400 nM and the TGI turned out to be 63100 nM.
Take `COc1ccc(OC)c(/C=C/[N+](=O)[O-])c1`: the GI50 was 1220 nM and the TGI amounted to 2680 nM.
With `OCCN1CCN(CCCN2c3ccccc3Sc3ccc(C(F)(F)F)cc32)CC1`, the GI50 is 827 nM and 3630 nM and 2630 nM; the total growth inhibition concentration (TGI) is 2080 nM and 15400 nM and 11300 nM.
For the compound `c1ccc2c(c1)O[As](O[As]1Oc3ccccc3O1)O2`, the GI50 is 1250 nM and the TGI was determined as 4040 nM.
Turning to `C=C1C(=O)O[C@H]2[C@H]1CC/C(COC(=O)OCCCCCOC(=O)OC/C1=C/CC[C@@]3(C)O[C@H]3[C@H]3OC(=O)C(=C)[C@@H]3CC1)=C\CC[C@@]1(C)O[C@@H]21`, the GI50 was 186 nM and the total growth inhibition concentration (TGI) was 458 nM.
Regarding `COc1cc(-c2c3c(cn2S(=O)(=O)c2ccccc2)-c2nc(N)sc2CC3)cc(OC)c1OC`, the GI50 is 426 nM and the total growth inhibition concentration (TGI) came to 22200 nM.
With `COC[C@H]1C(=O)NCC(=O)N2NCCC[C@H]2C(=O)N(O)[C@H](C)C(=O)O[C@@H](C(C)C)[C@H](NC(=O)[C@](C)(O)[C@]2(O)CC[C@@H](CC(C)C)[C@H](C)O2)C(=O)N2NCCC[C@@H]2C(=O)N1O`, the concentration for 50% growth inhibition (GI50) is 14 nM and the TGI came to 31.1 nM.
The matching figures for `CCOC(=O)C1(Cc2ccc(C)cc2)Cc2ccc(C)cc2C1=O` (centres undefined): 10400 nM and 37400 nM.
The matching figures for `Cc1ccc(S(=O)(=O)N(C)C)cc1[N+](=O)[O-]`: > 100000 nM and > 100000 nM.
On to `COc1ccc(-c2cc3c4c(nc5ccccc5c4c2)CC(c2cc(OC)c(OC)c(OC)c2)O3)cc1` (centres undefined), for which the GI50 was 2630 nM and the TGI was 10500 nM.
As to `O=S(=O)(Nc1ccc(-c2nc(-c3cccc(OCCN4CCOCC4)c3)c(-c3ccnc(Br)c3)[nH]2)cc1)c1ccccc1`, the GI50 was 1850 nM and the concentration for total growth inhibition (TGI) came out at 5240 nM.
The matching figures for `COc1cnc2c(c1)C(=O)c1c-2n(CCCn2ccnc2)c(=O)c2cc(OC)c(OC)cc12`: 51.1 nM and 358 nM.
On to `O=C1C=C(SCCO)C(=O)c2ccccc21`, for which the GI50 is 1510 nM and the total growth inhibition concentration (TGI) was found to be 3460 nM.
On to `CN1CCN(c2ccc(Nc3nc(NCCCNS(=O)(=O)c4cccc5ccccc45)c4sccc4n3)cc2)CC1`, for which the GI50 was 2100 nM and the TGI stood at 6230 nM.
Take `Cc1nc2sc(C(=O)Nc3cccc4ccccc34)c(N)c2cc1C(C)O` (centres undefined): the GI50 is 126 nM and the TGI was found to be 416 nM.
With `Cn1cc(-c2cc3c(Nc4ccc(CC(=O)Nc5cc(C(C)(C)C)on5)cc4)ncnc3[nH]2)cn1`, the GI50 was 325 nM and 242 nM; the total growth inhibition concentration (TGI) was 1080 nM and 737 nM.
Regarding `Brc1c[n+](Cc2ccc3ccccc3c2)cn1Cc1ccc2ccccc2c1`, the GI50 was 624 nM and the concentration for total growth inhibition (TGI) was 2570 nM.
With `COC1=CC(c2ccc[nH]2)=N/C1=C\c1[nH]c(C)c(C(=O)CCC(=O)Oc2ccc3c(c2)CCC2C3CC[C@]3(C)C(=O)CC[C@@H]23)c1C` (some centres undefined), the GI50 was 16900 nM and the TGI was > 100000 nM.
On to `CCC(=O)Sc1ccccc1C(=O)Nc1ccc(Cl)cc1`, for which the GI50 was 9970 nM and the TGI is > 100000 nM.
Regarding `COc1ccc(/C=C2/CN(C(=O)c3ccccc3F)C/C(=C\c3ccc(OC)cc3)C2=O)cc1`, the GI50 is 1910 nM and the TGI amounted to 4490 nM.
Consider `C[C@@H]1O[C@@H](O[C@H]2C[C@@H](O)[C@]3(CO)C4C(CC[C@]3(O)C2)[C@@]2(O)CC[C@H](C3=CC(=O)OC3)[C@@]2(C)C[C@H]4O)[C@H](O)[C@H](O)[C@H]1O` (some centres undefined), for which the concentration for 50% growth inhibition (GI50) was 84.1 nM and the TGI is 187 nM.
The matching figures for `COc1ccc2c(c1)Oc1nc(N)c(C#N)c(N)c1C2Sc1ccc(SC)cc1` (centres undefined): 1750 nM and 3590 nM.
Consider `COCCNCC(O)Cn1c2ccc(Cl)cc2c2cc(Cl)ccc21` (centres undefined), for which the GI50 is 1780 nM and the concentration for total growth inhibition (TGI) is 3850 nM.
In the case of `O=C1C(=O)c2ccc(Br)cc2-c2cc(Br)ccc21`, the GI50 was 604 nM and the TGI was found to be 1430 nM.
Turning to `CCCC[C@@H]1NC(=O)[C@H](CCCCN)NC(=O)[C@H](CCCNC(=N)N)NC(=O)[C@H](CC(C)C)NC(=O)[C@@H](NC(=O)[C@H](Cc2cccc(Cl)c2)NC(=O)[C@@H]2CCCN2C(=O)[C@@H](NC(C)=O)C(C)C)CCSSC[C@@H](C(=O)N[C@@H](CCCCN)C(=O)N2CCC[C@H]2C(=O)N2CCC[C@H]2C(=O)N[C@@H](CCC(=O)O)C(N)=O)NC(=O)[C@H](Cc2ccccc2)NC(=O)[C@H](CO)NC(=O)[C@H](C)NC(=O)[C@@H]2CCCN2C1=O`, the GI50 was > 50000 nM and the TGI is > 50000 nM.
Take `COc1ccc2c(c1)O/C(=C\c1cccc(OCC(=O)Nc3nc4ccccc4s3)c1)C2=O`: the GI50 was 6040 nM and the TGI is > 100000 nM.
On to `O=C1Nc2ccc(Cl)cc2/C1=C\c1c(-c2ccc(F)cc2)nc2ccccn12`, for which the GI50 was 2080 nM and the concentration for total growth inhibition (TGI) was 6190 nM.
As to `CCCOC(=O)N[C@H]1CCc2c(Br)c(OC)c(OC)c(OC)c2-c2ccc(SC)c(=O)cc21`, the GI50 is < 10 nM and the TGI was 18100 nM.
The matching figures for `CCOc1ccc(NC(=O)Nc2cc(C(C)C)ccc2C)cc1`: 5670 nM and 51800 nM.
Consider `O=C(NNc1nc2cc(F)ccc2n2c(CN3CCOCC3)ccc12)c1ccccc1`, for which the GI50 was 193 nM and the TGI was 894 nM.
`OCC1SC(n2cnc3cncnc32)C(O)C1O` (centres undefined): the GI50 was > 100000 nM and the TGI was > 100000 nM.
As to `CO/N=C(\c1ccccc1)c1cnn(-c2ccccc2)c1N`, the GI50 is > 25000 nM and the TGI was > 25000 nM.
`CN(C(=O)c1ccc(F)cc1C(F)(F)F)C1CCN(c2nnc(-c3ccnn3C)c3ccccc23)CC1`: the GI50 is 7100 nM and the TGI worked out at 61400 nM.
In the case of `COc1ccc(-c2nc(-c3nc4ccc(F)cc4[nH]3)cc3c2[nH]c2ccccc23)cc1`, the GI50 was 2080 nM and the TGI is > 100000 nM.
Turning to `Cc1cc(N(CCCl)CCCl)ccc1C=Nc1cccnc1`, the concentration for 50% growth inhibition (GI50) was 71.2 nM and the concentration for total growth inhibition (TGI) worked out at 521 nM.
For the compound `O=C(CC12CC3CC(CC(C3)C1)C2)NCCOCCOCCNC(=O)c1cc2c(o1)C(=O)c1ccccc1C2=O`, the GI50 was 1210 nM and the TGI was determined as 3300 nM.
As for `O=C(NCc1cn(Cc2cccc(Oc3ccccc3)c2)nn1)c1cccnc1Nc1ccccc1`, the GI50 was 2880 nM and the concentration for total growth inhibition (TGI) was 57400 nM.
Turning to `CC1(C)CCC(S(=O)(=O)c2ccc3c(c2)/C(=N\O)c2cc(S(=O)(=O)N4CCC(O)(c5cccc(C(F)(F)F)c5)CC4)ccc2-3)CC1`, the GI50 is 17.6 nM and the total growth inhibition concentration (TGI) came to 35.6 nM.
Consider `O=C(c1ccccc1)c1ccc(-c2ccc(O)cc2)cc1`, for which the GI50 is 1940 nM and the TGI stood at 8860 nM.
The matching figures for `COc1cc(O)c2c(c1)[C@H]1O[C@@H]1C[C@H](O)[C@H](O)C(=O)/C=C\C[C@H](C)OC2=O`: 1100 nM and 5640 nM.
As for `FC(F)(F)c1cc(Nc2ccc3c(OCCCN4CCOCC4)cccc3n2)ccc1Cl`, the GI50 was 2170 nM and the TGI was 5920 nM.
The matching figures for `ClCCN(CCCl)Cc1ccc(Nc2ccnc3cc(Cl)ccc23)cc1`: 702 nM and 2990 nM.
For the compound `CS(=O)(=O)c1nccc(-c2c(-c3cccc(OCc4ccc(F)cc4)c3)nc3sccn23)n1`, the GI50 is 1990 nM and the TGI is 3980 nM.
The matching figures for `Cc1ccc(NS(=O)(=O)c2ccc(-c3cnc(C4CC4)o3)cc2)cc1`: 1170 nM and 5830 nM.
